Source: ChEMBL document CHEMBL1649432, “Chromosomal integration of the extended-spectrum beta-lactamase gene blaCTX-M-15 in Salmonella enterica serotype Concord isolates from internationally adopted children” (2009)
In brackets after ≈: the same amount, converted by molar mass.

What was measured:
Format in all cases: functional, Salmonella enterica subsp. enterica serovar Concord
[1] = Antimicrobial activity against Salmonella enterica serotype concord expressing extended-spectrum beta-lactamase SHV-12 by disc diffusion method
[2] = Antimicrobial activity against Salmonella enterica serotype concord expressing extended-spectrum beta-lactamase CTX-M-15 by disc diffusion method
[3] = Antimicrobial activity against Salmonella enterica serotype concord expressing extended-spectrum beta-lactamase SHV-12 by Etest
[4] = Antimicrobial activity against Salmonella enterica serotype concord expressing extended-spectrum beta-lactamase CTX-M-15 by Etest

| MIC [1] [µg/mL] | MIC ([2]; Salmonella enterica) [µg/mL] | SMILES | MIC [3] [µg/mL] | MIC [4] [µg/mL] | Activity [2] [µg/mL] |
| --- | --- | --- | --- | --- | --- |
| 8 (≈ 16.6 µM) | > 256 | CO/N=C(\C(=O)N[C@@H]1C(=O)N2C(C(=O)[O-])=C(C[N+]3(C)CCCC3)CS[C@H]12)c1csc(N)n1 [CEFEPIME] |  |  |  |
|  |  | CC(C)(O/N=C(\C(=O)N[C@@H]1C(=O)N2C(C(=O)[O-])=C(C[n+]3ccccc3)CS[C@H]12)c1csc(N)n1)C(=O)O [CEFTAZIDIME] | > 256 | > 256 |  |
|  |  | CO/N=C(\C(=O)N[C@@H]1C(=O)N2C(C(=O)O)=C(CSc3nc(=O)c(O)nn3C)CS[C@H]12)c1csc(N)n1 [CEFTRIAXONE] | 64 (≈ 115 µM) | > 256 |  |
|  |  | O=C(O)c1cn(C2CC2)c2cc(N3CCNCC3)c(F)cc2c1=O [CIPROFLOXACIN] |  |  | 0.25 |
